Experimental findings from patent US20250171460A1, “INDUCERS OF KLF2 AND METHODS OF USE THEREOF” (Riparian Pharmaceuticals, Inc., priority 2022, published 2025) are described below.

pEC50: −log10 of the molar value.

The first test has as its system primary human endothelial cells expressing luciferase under the control of the KLF2 promoter. The test is described as follows: KLF2 Induction Cell Based Bioassay (luciferase reporter). The following applies: Bioactivity of stereoisomers: S isomer. An excerpt: In endothelial cell culture media, a stock of the highest working concentration was made at no more than 1% DMSO vehicle. The working stock was then serially diluted 1:2 to make an 11-point concentration response curve. Included in the 96-well plate were 2 reference compounds with known potencies. A DMSO column was included in the 96-well plate at the highest percent vehicle of the working stocks. The 96-well cell culture plate of primary human endothelial cells expressing luciferase under the control of the KLF2 promoter was dosed with 200 μL per well of the dilution series as well as the DMSO control column. The assay plate was incubated at 37° C. for 24 hours. The supernatant was collected at 24 hours.
20 μL of the supernatant was then placed in a 384-well plate with optical duplicates. The corners of the plate received 20 μL of the Gaussia Luciferase Enzyme positive control, as well as 20 μL of the 50 μM Coelenterizine substrate. The plate read is then calibrated using the control, and read using a Molecular Devices SpectraMax iD5, providing luminescence in relative light units (RLU). The plate reader injected 20 μL of the 50 μM Coelenterizine substrate immediately before taking the RLU measurement for each well.
The sample signals were then normalized to the average signal of the DMSO column, as well as to the maximum signal of one of the reference compounds, as shown in the equations below: […]
The EC50 of each compound is then defined as when the concentration response curve passes 0.5.
A general note: A reporter such as luciferase makes a cellular process visible.
Regarding `COCCN1C(=O)c2oc3cc(C(=O)NC4(C)COC4)ccc3c2OC[C@@]1(C)C(=O)NCc1c(F)cccc1OC` [Example 135], the “Bioactivity Bucket, S” value was “inactive”.

The test is the same for the next values; noted with them: Homo sapiens, Endothelial cell, 24 h, KLF2 promoter luciferase, 24 hours, 11-point concentration response; read-out: Activity Range (EC50).
As for `COc1cccc(F)c1CNC(=O)C1(C)COc2c(oc3ccc(Cl)cc23)C(=O)N1CC(=O)N(C)C` (racemic) [Example 106, 9-chloro-4-(2-(dimethylamino)-2-oxoethyl)-N-(2-fluoro-6-methoxybenzyl)-3-methyl-5-oxo-2,3,4,5-tetrahydrobenzofuro[2,3-f][1,4]oxazepine-3-carboxamide], the pEC50 is 6.30 to 7.29. In the case of `CCOC(=O)CN1C(=O)c2oc3ccccc3c2OCC1(C)C(=O)NCc1ccccc1OC` (centres unmarked) [Example 4], the pEC50 was 5.30 to 6.30. Turning to `COc1cccc(F)c1CNC(=O)C1(C)COc2c(oc3cc(-c4ncco4)cnc23)C(=O)N1CC(=O)N(C)C` (centres unmarked) [Example 124, 4-(2-(dimethylamino)-2-oxoethyl)-N-(2-fluoro-6-methoxybenzyl)-3-methyl-8-(oxazol-2-yl)-5-oxo-2,3,4,5-tetrahydropyrido[2′,3′:4,5]furo[2,3-f][1,4]oxazepine-3-carboxamide], the pEC50 was 6.30 to 7.29.

With `COCCN1C(=O)c2oc3ccccc3c2OCC1(C)C(=O)NCc1c(OC)cccc1C(N)=O` (centres unmarked) [Example 26], the pEC50 is 5.30 to 6.30. With `COCCN1C(=O)c2oc3cc(C(=O)NC4(C)COC4)ccc3c2OCC1(C)C(=O)NCc1ccc(F)cc1OC` (centres unmarked) [Example 76], the pEC50 is 6.30 to 7.29. Turning to `COCCN1C(=O)c2oc3ccccc3c2OCC1(C)C(=O)NCc1c(OC)ccc(F)c1F` (centres unmarked) [Example 21], the pEC50 is 5.30 to 6.30.

For the compound `[2H]C([2H])([2H])N(C(=O)CN1C(=O)c2oc3ccc(Cl)cc3c2OCC1(C)C(=O)NCc1ncccc1OC(C)C)C([2H])([2H])[2H]` (centres unmarked) [Example 110], the pEC50 is 5.30 to 6.30. Regarding `COCCN1C(=O)c2oc3cc(C)ccc3c2OCC1(C)C(=O)NCc1ccccc1OC` (centres unmarked) [Example 95, N-(2-methoxybenzyl)-4-(2-methoxyethyl)-3,8-dimethyl-5-oxo-2,3,4,5-tetrahydrobenzofuro[2,3-f][1,4]oxazepine-3-carboxamide], the pEC50 is 5.30 to 6.30. Take `COCCN1C(=O)c2oc3cc(C(=O)NC4(C)COC4)ccc3c2OCC1(C)C(=O)NCc1c(Cl)cccc1OC` (centres unmarked) [Example 64]: the pEC50 is 6.30 to 7.29. For the compound `[2H]C([2H])([2H])N(C(=O)CN1C(=O)c2oc3cc(-c4nc(C(F)(F)F)cs4)ccc3c2OC[C@]1(C)C(=O)NCc1ncccc1OC)C([2H])([2H])[2H]` [Example 126], the pEC50 was at least 7.30. For the compound `[2H]C([2H])([2H])N(C(=O)CN1C(=O)c2oc3ccc(Cl)cc3c2OC[C@]1(C)C(=O)NCc1ncccc1OC)C([2H])([2H])[2H]` [Example 103], the pEC50 was 6.30 to 7.29. Same read-out and setting: to `COCCN1C(=O)c2oc3ccccc3c2OCC1(C)C(=O)NCc1c(OC)ccc2ccccc12` (centres unmarked) [Example 32] belongs 5.30 to 6.30; to `COCCN1C(=O)c2oc3cc(-c4nccs4)ccc3c2OCC1(C)C(=O)NCc1ccccc1OC` (centres unmarked) [Example 101], 6.30 to 7.29.

For `COCCN1C(=O)c2oc3cc(C(=O)NC4CCC4)ccc3c2OC[C@@]1(C)C(=O)NCc1ccccc1OC` [Example 49, (S)—N8-cyclobutyl-N3-(2-methoxybenzyl)-4-(2-methoxyethyl)-3-methyl-5-oxo-2,3,4,5-tetrahydrobenzofuro[2,3-f][1,4]oxazepine-3,8-dicarboxamide], the pEC50 was 5.30 to 6.30. For the compound `COCCN1C(=O)c2oc3cc(C(=O)NC4(C)COC4)ccc3c2OCC1(C)C(=O)NCc1c(F)cccc1OC` (racemic) [Example 81], the pEC50 was 6.30 to 7.29.

Turning to `COc1cccc(F)c1CNC(=O)C1(C)COc2c(oc3cc(C(=O)NC4(C)COC4)ccc23)C(=O)N1[C@H]1C[C@@H](OC)C1` (some centres unmarked) [Example 68], the pEC50 was 6.30 to 7.29. For the compound `COc1ccccc1CNC(=O)C1(C)COc2c(oc3ccccc23)C(=O)N1CC1(OC)CCC1` (centres unmarked) [Example 10], the pEC50 is 5.30 to 6.30.

In the case of `COCCN1C(=O)c2oc3ccccc3c2OCC1(C)C(=O)NCc1cc(C)ccc1OC` (centres unmarked) [Example 34], the pEC50 is 5.30 to 6.30. With `COCCN1C(=O)c2oc3ccccc3c2OCC1(C)C(=O)NCc1cc(OC)ccc1OC` (centres unmarked) [Example 35], the pEC50 was 5.30 to 6.30. Take `COc1ccc(F)cc1CNC(=O)[C@@]1(C)COc2c(oc3ccc(F)cc23)C(=O)N1Cc1nnn(CCO)n1` [Example 119]: the pEC50 is 6.30 to 7.29. The same measure, in the same setting: to `COc1ccccc1CNC(=O)C1(C)COc2c(oc3ccccc23)C(=O)N1C1CC2(CC2)C1` (centres unmarked) [Example 14] belongs 6.30 to 7.29; to `COc1ccccc1CNC(=O)C1(C)COc2c(oc3ccccc23)C(=O)N1C1CCC1` (centres unmarked) [Example 13], 5.30 to 6.30. Regarding `COCCN1C(=O)c2oc3ccccc3c2OCC1(C)C(=O)NCc1cc2ncccc2cc1OC` (centres unmarked) [Example 18], the pEC50 is 5.30 to 6.30. As for `COc1cccc(F)c1CNC(=O)C1(C)COc2c(oc3cc(C(=O)NC4CCC4)ccc23)C(=O)N1CC1CC1` (centres unmarked) [Example 93], the pEC50 was at least 7.30.

Take `COCCN1C(=O)c2oc3ccccc3c2OCC1(C)C(=O)NCc1ccc(C)cc1OC` (centres unmarked) [Example 43]: the pEC50 was 5.30 to 6.30.

`COc1ccc(F)cc1CNC(=O)C1(C)COc2c(oc3cc(C(=O)NC4CCC4)ccc23)C(=O)N1CC1CC1` (centres unmarked) [Example 92]: the pEC50 was at least 7.30. On to `COCCN1C(=O)c2oc3ccccc3c2OCC1(C)C(=O)NCc1c(F)cc(Cl)cc1OC` (centres unmarked) [Example 16], for which the pEC50 was 5.30 to 6.30. Still for that read-out and setting: to `COCCN1C(=O)c2oc3ccccc3c2OCC1(C)C(=O)NCc1cc2ccccc2cc1OC` (centres unmarked) [Example 31] belongs 5.30 to 6.30; to `COc1cccc(C#N)c1CNC(=O)C1(C)COc2c(oc3cc(C(=O)NC4CCC4)ccc23)C(=O)N1CC1CC1` (centres unmarked) [Example 67], 6.30 to 7.29; to `C#CCCN1C(=O)c2oc3ccccc3c2OC[C@]1(C)C(=O)NCc1ccccc1OC` [Example 6], 5.30 to 6.30. In the case of `COCCN1C(=O)c2oc3cc(C(=O)NC4CCC4)ccc3c2OCC1(C)C(=O)NCc1c(Cl)cccc1OC` (centres unmarked) [Example 88], the pEC50 was at least 7.30. On to `COCCN1C(=O)c2oc3cc(C4CC4)ccc3c2OCC1(C)C(=O)NCc1ccccc1OC` (centres unmarked) [Example 97], for which the pEC50 was 5.30 to 6.30. Same read-out and setting: to `COc1cccc(F)c1CNC(=O)C1(C)COc2c(oc3cc(C(=O)NC4(C)COC4)ccc23)C(=O)N1CC1CC1` (centres unmarked) [Example 89] belongs at least 7.30; to `COCCN1C(=O)c2oc3cc(C(=O)NC4(C)COC4)ccc3c2OCC1(C)C(=O)NCc1cc(F)ccc1OC` (centres unmarked) [Example 74], 5.30 to 6.30. For the compound `COc1ccccc1CNC(=O)C1(C)COc2c(oc3ccccc23)C(=O)N1CC1(O)CCC1` (centres unmarked) [Example 11], the pEC50 was 5.30 to 6.30.

For the compound `COc1ccc(F)c(F)c1CNC(=O)C1(C)COc2c(oc3cc(C(=O)NC4CCC4)ccc23)C(=O)N1CC1CC1` (centres unmarked) [Example 58], the pEC50 was 6.30 to 7.29. For the compound `COc1cccc(F)c1CNC(=O)[C@@]1(C)COc2c(oc3ccc(F)cc23)C(=O)N1CC(=O)N1CC[C@H]1CO` [Example 117], the pEC50 is 6.30 to 7.29. For `COCCN1C(=O)c2oc3ccccc3c2OCC1(C)C(=O)NCc1ccc(F)cc1OC` (centres unmarked) [Example 39], the pEC50 is 5.30 to 6.30. In the case of `COCCN1C(=O)c2oc3ccccc3c2OCC1(C)C(=O)NCc1c(C#N)cccc1OC` (centres unmarked) [Example 28], the pEC50 was 5.30 to 6.30. With `COCCN1C(=O)c2oc3ccccc3c2OCC1(C)C(=O)NCc1c(Cl)cccc1OC` (centres unmarked) [Example 24], the pEC50 was 5.30 to 6.30. Turning to `COCCN1C(=O)c2oc3ccccc3c2OCC1(C)C(=O)NCc1c(Cl)cc(F)cc1OC` (centres unmarked) [Example 48], the pEC50 was 5.30 to 6.30.

On to `COCCN1C(=O)c2oc3cc(C(=O)NC4(C)COC4)ccc3c2OCC1(C)C(=O)NCc1ncccc1OC` (centres unmarked) [Example 66], for which the pEC50 is 5.30 to 6.30. In the case of `COc1cccc(Cl)c1CNC(=O)C1(C)COc2c(oc3cc(C(=O)NC4CCC4)ccc23)C(=O)N1CC1CC1` (centres unmarked) [Example 87], the pEC50 is at least 7.30. Consider `COc1ccc(F)c(F)c1CNC(=O)C1(C)COc2c(oc3cc(C(=O)NC4CCC4)ccc23)C(=O)N1[C@H]1C[C@@H](OC)C1` (some centres unmarked) [Example 82], for which the pEC50 was 6.30 to 7.29. Regarding `COCCN1C(=O)c2oc3cc(C(=O)NC4CCC4)ccc3c2OCC1(C)C(=O)NCc1c(C#N)cccc1OC` (centres unmarked) [Example 90], the pEC50 was at least 7.30. In the case of `COc1cccnc1CNC(=O)C1(C)COc2c(oc3cc(C(=O)NC4CCC4)ccc23)C(=O)N1[C@H]1C[C@@H](OC)C1` (some centres unmarked) [Example 54], the pEC50 is 6.30 to 7.29.

As for `COc1cccc(F)c1CNC(=O)[C@@]1(C)COc2c(oc3cc(C(F)(F)F)cnc23)C(=O)N1CC(=O)N(C)C` [Example 134, (R)-4-(2-(dimethylamino)-2-oxoethyl)-N-(2-fluoro-6-methoxybenzyl)-3-methyl-5-oxo-8-(trifluoromethyl)-2,3,4,5-tetrahydropyrido[2′,3′:4,5]furo[2,3-f][1,4]oxazepine-3-carboxamide], the pEC50 was 6.30 to 7.29. For the compound `COc1cccc(F)c1CNC(=O)C1(C)COc2c(oc3cc(C(=O)NC4CCC4)ccc23)C(=O)N1[C@H]1C[C@@H](OC)C1` (some centres unmarked) [Example 91], the pEC50 was at least 7.30.

Still in this test, the particulars now being: Homo sapiens, Endothelial cell, Bioactivity of stereoisomers: R isomer; read-out: Bioactivity Bucket, R.
Take `C#CCCN1C(=O)c2oc3ccccc3c2OC[C@]1(C)C(=O)NCc1ccccc1OC` [Example 6]: the pEC50 is 5.30 to 6.30.

Staying with this test, now noted: Homo sapiens, Endothelial cell, Bioactivity of stereoisomers: S isomer; read-out: Bioactivity Bucket, S.
Regarding `COCCN1C(=O)c2oc3cc(C(=O)NC4CCC4)ccc3c2OC[C@@]1(C)C(=O)NCc1ccccc1OC` [Example 49, (S)—N8-cyclobutyl-N3-(2-methoxybenzyl)-4-(2-methoxyethyl)-3-methyl-5-oxo-2,3,4,5-tetrahydrobenzofuro[2,3-f][1,4]oxazepine-3,8-dicarboxamide], the pEC50 is 5.30 to 6.30.

The same test, now with this note: Homo sapiens, Endothelial cell, Bioactivity of stereoisomers: racemate; read-out: Bioactivity Bucket, Racemate.
Take `COc1cccc(F)c1CNC(=O)C1(C)COc2c(oc3ccc(Cl)cc23)C(=O)N1CC(=O)N(C)C` (racemic) [Example 106, 9-chloro-4-(2-(dimethylamino)-2-oxoethyl)-N-(2-fluoro-6-methoxybenzyl)-3-methyl-5-oxo-2,3,4,5-tetrahydrobenzofuro[2,3-f][1,4]oxazepine-3-carboxamide]: the pEC50 was 6.30 to 7.29.

Consider `COCCN1C(=O)c2oc3cc(C(=O)NC4(C)COC4)ccc3c2OCC1(C)C(=O)NCc1c(F)cccc1OC` (racemic) [Example 81], for which the pEC50 was 6.30 to 7.29.
